For assay [1], the system named is Staphylococcus aureus. Kind of assay: Antibacterial activity against Staphylococcus aureus ATCC 6538 after 24 hrs. The assay is classed as functional. The following applies: ATCC 6538, 24 h.
Assay [2] has as its system A549. Kind of assay: Cytotoxicity against human A549 cells after 48 hrs by MTS assay. The assay is classed as functional, cell-based. The following applies: A549, 48 h. On the technique in general: Tetrazolium assays rely on reduction of a dye to a coloured formazan, in cell work by metabolically active cells.
In assay [3] the test system is T-24. Kind of assay: Cytotoxicity against human T24 cells after 48 hrs by MTS assay. The class given is functional, cell-based. Conditions: T-24, 48 h.

SMILES strings stand for the structures. Values after ≈ are worked out from the molar mass of the structure shown.

Usually MIC stands for the least concentration at which growth counts as inhibited. Read a low MIC as greater potency. With `CC1(C)S[C@@H]2[C@H](NC(=O)[C@H](N)c3ccccc3)C(=O)N2[C@H]1C(=O)O` [AMPICILLIN], in assay [1], the minimum inhibitory concentration (MIC) turned out to be 0.46 µg/mL (≈ 1.32 µM).
The term IC50 denotes the concentration at which inhibition is half-maximal. Read a low IC50 as greater potency in that assay. As for `COc1c(O)c(-c2c(O)c(OC)c(OC)c3c2OC(C)(O)C3=O)c2c(c1OC)C(=O)C(C)(O)O2` (centres undefined) [ARUNDINONE B], the IC50 in assay [2] turned out to be 81.6 µM; in assay [3], 35.4 µM.
`C=C(C)[C@@H]1CC[C@]2(C)C(=C(C)C(=O)C[C@H]2O)C1` [LIGUCYPERONOL] yielded a minimum inhibitory concentration (MIC) in assay [1] of 11.4 µg/mL (≈ 48.6 µM).
